The source of these data is publication PMC3170524 (Physiological research / Academia Scientiarum Bohemoslovaca, 2010).

Common to all, as to test: whole-cell patch clamp, peak current dose-response
Type in all cases: cell-based
For orientation: The patch-clamp technique gives a direct electrical read-out from membranes.

Assay [1] deals with T1, rat P2X4R (Rattus norvegicus, UniProt P51577, C159A).
T1 sequence (P51577 1-388 C159A): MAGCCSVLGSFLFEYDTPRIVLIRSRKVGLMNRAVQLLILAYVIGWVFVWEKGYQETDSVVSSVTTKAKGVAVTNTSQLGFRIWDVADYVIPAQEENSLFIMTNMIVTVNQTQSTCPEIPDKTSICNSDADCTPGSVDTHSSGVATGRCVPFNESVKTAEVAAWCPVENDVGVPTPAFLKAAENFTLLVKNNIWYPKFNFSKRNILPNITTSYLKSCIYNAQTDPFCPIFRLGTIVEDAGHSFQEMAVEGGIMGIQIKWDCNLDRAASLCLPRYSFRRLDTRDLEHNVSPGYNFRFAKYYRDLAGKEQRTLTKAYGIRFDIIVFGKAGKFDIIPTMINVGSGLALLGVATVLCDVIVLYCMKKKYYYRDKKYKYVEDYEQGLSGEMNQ

Assay [2] addresses T2, rat P2X4R (Rattus norvegicus, UniProt P51577, C126T/C149T).
T2 sequence (P51577 1-388 C126T/C149T): T1 sequence (P51577 1-388 C159A) with C126T, C149T, A159C

For assay [3], the target named is T3, rat P2X4R (Rattus norvegicus, UniProt P51577, C261T/C270T).
T3 sequence (P51577 1-388 C261T/C270T): T1 sequence (P51577 1-388 C159A) with A159C, C261T, C270T

Assay [4] concerns the target T4, rat P2X4R (Rattus norvegicus, UniProt P51577, C217T).
T4 sequence (P51577 1-388 C217T): T1 sequence (P51577 1-388 C159A) with A159C, C217T

Residue numbers refer to the chain shown, from its start.

Consider `Nc1ncnc2c1ncn2[C@@H]1O[C@H](COP(=O)(O)OP(=O)(O)OP(=O)(O)O)[C@@H](O)[C@H]1O` [ATP], for which the EC50 (as a rule, the concentration needed to bring the measured effect to its halfway point) in assay [1] amounted to 5.1 ± 1.4 µM; in assay [2] it was 65 ± 24 µM; in assay [3] it was 1.7 ± 0.8 µM; in assay [4], 7.2 ± 2.9 µM.
